Results on 11 compounds are retold here after patent US11981660B2, “Neurite outgrowth promoters and uses thereof” (UNIVERSITY OF MIAMI, priority 2018, dated 2024).

This assay concerns hippocampal neurons. Description: Neurite outgrowth assay in cultured E18 rat hippocampal neurons (48 h, βIII-tubulin staining, Cellomics ArrayScan). The assay is classed as cell-based. To be noted: Hippocampal neuron; for activity at 0.015625 µg/mL: 15.625 ng/mL compound; for activity at 0.015625 µg/mL / activity at 0.03125 µg/mL / activity at 0.0625 µg/mL / activity at 0.125 µg/mL / activity at 0.25 µg/mL / activity at 0.5 µg/mL: 48 hours, read-out: neurite growth length (% NTL); for activity at 0.03125 µg/mL: 31.25 ng/mL compound; for activity at 0.0625 µg/mL: 62.5 ng/mL compound; for activity at 0.125 µg/mL: 125 ng/mL compound; for activity at 0.25 µg/mL: 250 ng/mL compound; for activity at 0.5 µg/mL: 500 ng/mL compound; for EC200 / EC300: 48 h, estimated using linear interpolation; for EC200: 200% effective dose, read-out: ED200%; for EC300: 300% effective dose, read-out: ED300%. The procedure:
Pre-coating culture plates: On the day before the experiment, 96-well plates were pre-coated by plating 50 μL of poly-D-lysine solution (PDL, 0.5 mg/mL) in each well. The next morning, the plates were washed four or five times with HBSS or PBS (150 μL/rinse), then left in buffer until cell plating
Preparing the cells: A timed pregnant rat carrying E18 embryos was euthanized using an IACUC approved method. In a laminar flow hood, the embryos were removed and placed in a petri dish containing Hank's Balanced Salt Solution (HBSS) with 20 mM HEPES, pH 7.3. Pup brains were dissected (see Meberg et al., Methods cell Biol 71:111-127 (2003)) and hippocampi were collected in 15 mL a conical tube containing Hibernate E with SM1 (2% v/v).
Dissociation media was prepared by combining 4.5 mL of Hibernate E (without SM1) with 0.5 mL of trypsin and 100 μl of DNAse solution. The medium over the hippocampi was carefully removed and replaced with dissociation solution, then incubated at 37° C. for 15-20 minutes, occasionally swirling the tube.
Using flame polished cotton plugged Pasteur pipettes, the dissociation media was removed, and then 5 mL of Hibernate E containing SM1 were added. The tube was swirled to thoroughly wash the tissue. The tissue was allowed to settle to the bottom of the tube, and the rinse solution was carefully removed. This step was repeated 5 times to dilute out trypsin and DNAse and remove any debris from lysed cells.
The final rinse media was removed from the tube and 1 pipette-full (1-2 mL) of Hibernate E with SM1 was added. Using the flame-polished Pasteur pipette (pre-wetted with rinse media), the tube was triturated until all cells had dissociated and no visible chunks of tissue remained. Fewer than ten triturations were typically performed. The volume was adjusted to 8-12 mL using Hibernate E containing SM1, the well was mixed and cell concentration was determined.
Plating: The cells were diluted in culture media (NbActiv4 Cell-culture media) to a final concentration of 10,000 cells/mL. The HBSS was aspirated from PDL coated plates, and 150 μL of cell solution was loaded in the middle 48 wells at 1500 cells per well. Water was loaded in the outer wells to decrease evaporation from edge wells. Cells were allowed to adhere for 2 hours in tissue culture incubator prior to treatment.
Treatment: Compounds were diluted to various concentrations to provide 6 dose response concentrations of 500 ng/mL, 250 ng/mL, 125 ng/mL, 62.5 ng/mL, 31.25 ng/mL, and 15.625 ng/mL. The plates were cultured for 48 hours, exposed to the compound at the various dose response concentrations.
Fixing the cultures: The culture medium was removed from the plates and immediately replaced with 100-200 μL of warm (37° C.) 4% paraformaldehyde (“PFA”) solution in phosphate-buffered saline (“PBS”). The cells were fixed for 15-20 minutes at room temperature, and then rinsed with PBS (200 μl/well×3).
Staining and imaging: The PBS was removed and replaced with 100 μL of blocking/permeabilization buffer (PBS, 0.2% fish gelatin, 0.03% Triton X-100, 0.02% NaN3), then incubated overnight at 4° C. To this was added 100 μL of primary antibody solution (mouse anti-Beta III tubulin in blocking buffer) and incubate overnight at 4° C. The wells were rinsed with PBS (200 μl×3), which was then removed and replaced with 100 μL of secondary antibody solution (Goat anti-mouse Alexa 488, 10 μg/ml Hoechst 33342, 0.2% fish gelatin, 0.02% azide, in PBS). The plate was shaken gently on a rotating shaker for 2 hours, then rinsed with PBS (200 μl×5).
The plate was imaged using a Cellomics ArrayScan VTI in 2 different channels for nuclear staining (Hoechst) and cell body/neurite staining (βIII-tubulin). Typically, nine fields per well were imaged with a 5× objective and automatically traced by the Neuronal Profiling Bioapplication. To get reproducible results, at least 200-300 valid neurons were measured per condition. […]

Structures are written as SMILES.

On to `C[C@@H]1CN(CCCC[C@H]2CNC(C3CCCC3)=N2)C(=S)N1CCC1CCCCC1` [Compound A5, (R)-3-(2-cyclohexylethyl)-1-(4-((S)-2-cyclopentyl-4,5-dihydro-1H-imidazol-4-yl)butyl)-4-methylimidazolidine-2-thione], for which the activity at 0.015625 µg/mL came out at 105%, the activity at 0.03125 µg/mL was determined as 158%, the activity at 0.0625 µg/mL was found to be 188% and the activity at 0.125 µg/mL was found to be 251%. In addition, the activity at 0.25 µg/mL is 246% and the activity at 0.5 µg/mL amounted to 304%.

Consider `CC1CCC(CN2C(=S)N(CCCC[C@H]3CNC(CCCc4ccccc4)=N3)C[C@H]2C)CC1` (stereo partly drawn) [Compound A9, (R)-4-methyl-3-((4-methylcyclohexyl)methyl)-1-(4-((S)-2-(3-phenylpropyl)-4,5-dihydro-1H-imidazol-4-yl)butyl)imidazolidine-2-thione], for which the activity at 0.015625 µg/mL is 88%, the activity at 0.03125 µg/mL was determined as 102%, the activity at 0.0625 µg/mL was 118% and the activity at 0.125 µg/mL was 70%. Moreover, the activity at 0.25 µg/mL turned out to be 238% and the activity at 0.5 µg/mL is 297%.

Take `CC1CCC(CN2C(=S)N(CCCC[C@H]3CNC(C4CCCC4)=N3)C[C@H]2c2ccccc2)CC1` (stereo partly drawn) [Compound A26, (R)-1-(4-((S)-2-cyclopentyl-4,5-dihydro-1H-imidazol-4-yl)butyl)-3-((4-methylcyclohexyl)methyl)-4-phenylimidazolidine-2-thione]: the activity at 0.015625 µg/mL was 251%, the activity at 0.03125 µg/mL is 272%, the activity at 0.0625 µg/mL was found to be 306% and the activity at 0.125 µg/mL is 286%. For the same compound, the activity at 0.25 µg/mL came to 271%, the activity at 0.5 µg/mL was 230%, the EC200 is 0.002 µM and the EC300 was > 0.52 µM.

Take `CCC(C)C1=N[C@@H](CCCCN2C[C@@H](C)N(CCCC(C)C)C2=S)CN1` (mixture of isomers) [Compound A1, (4R)-1-(4-((4S)-2-(sec-butyl)-4,5-dihydro-1H-imidazol-4-yl)butyl)-4-methyl-3-(4-methylpentyl)imidazolidine-2-thione]: the activity at 0.015625 µg/mL came out at 92%, the activity at 0.03125 µg/mL worked out at 116%, the activity at 0.0625 µg/mL is 155% and the activity at 0.125 µg/mL turned out to be 169%. Also, the activity at 0.25 µg/mL was 209% and the activity at 0.5 µg/mL came to 323%.

Take `CCC(C)C1=N[C@@H](CCCCN2C[C@@H](CC(C)C)N(CCC3CCCCC3)C2=S)CN1` (stereo partly drawn) [Compound A13, (4R)-1-(4-((4S)-2-(sec-butyl)-4,5-dihydro-1H-imidazol-4-yl)butyl)-3-(2-cyclohexylethyl)-4-isobutylimidazolidine-2-thione]: the activity at 0.015625 µg/mL came to 159%, the activity at 0.03125 µg/mL is 179%, the activity at 0.0625 µg/mL is 262% and the activity at 0.125 µg/mL was 253%. For the same compound, the activity at 0.25 µg/mL came out at 253% and the activity at 0.5 µg/mL stood at 264%.

With `CC(C)CCCN1C(=S)N(CCCC[C@H]2CNC(CCCc3ccccc3)=N2)C[C@H]1C` [Compound A3, (R)-4-methyl-3-(4-methylpentyl)-1-(4-((S)-2-(3-phenylpropyl)-4,5-dihydro-1H-imidazol-4-yl)butyl)imidazolidine-2-thione], the activity at 0.015625 µg/mL was found to be 116%, the activity at 0.03125 µg/mL was 100%, the activity at 0.0625 µg/mL turned out to be 124% and the activity at 0.125 µg/mL is 160%. Moreover, the activity at 0.25 µg/mL was determined as 257% and the activity at 0.5 µg/mL was determined as 347%.

As to `CC(C)C[C@@H]1CN(CCCC[C@H]2CNC(C3CCCC3)=N2)C(=S)N1CC1CCC(C)CC1` (stereo partly drawn) [Compound A17, (R)-1-(4-((S)-2-cyclopentyl-4,5-dihydro-1H-imidazol-4-yl)butyl)-4-isobutyl-3-((4-methylcyclohexyl)methyl)imidazolidine-2-thione], the activity at 0.015625 µg/mL came to 170%, the activity at 0.03125 µg/mL worked out at 255%, the activity at 0.0625 µg/mL is 254% and the activity at 0.125 µg/mL turned out to be 312%. Moreover, the activity at 0.25 µg/mL came out at 238%, the activity at 0.5 µg/mL was 263%, the EC200 was 0.004 µM and the EC300 is 0.025 µM.

`C[C@@H]1CN(CCCC[C@H]2CNC(CCCc3ccccc3)=N2)C(=S)N1CCC1CCCCC1` [Compound A6, (R)-3-(2-cyclohexylethyl)-4-methyl-1-(4-((S)-2-(3-phenylpropyl)-4,5-dihydro-1H-imidazol-4-yl)butyl)imidazolidine-2-thione]: the activity at 0.015625 µg/mL worked out at 101%, the activity at 0.03125 µg/mL was found to be 122%, the activity at 0.0625 µg/mL amounted to 122% and the activity at 0.125 µg/mL was found to be 210%. The activity at 0.25 µg/mL worked out at 247% and the activity at 0.5 µg/mL is 243%.

For the compound `CC1CCC(CN2C(=S)N(CCCC[C@H]3CNC(CCCc4ccccc4)=N3)C[C@H]2c2ccccc2)CC1` (stereo partly drawn) [Compound A27, (R)-3-((4-methylcyclohexyl)methyl)-4-phenyl-1-(4-((S)-2-(3-phenylpropyl)-4,5-dihydro-1H-imidazol-4-yl)butyl)imidazolidine-2-thione], the activity at 0.015625 µg/mL stood at 185%, the activity at 0.03125 µg/mL is 174%, the activity at 0.0625 µg/mL turned out to be 238% and the activity at 0.125 µg/mL worked out at 269%. The activity at 0.25 µg/mL came out at 245%, the activity at 0.5 µg/mL was found to be 221%, the EC200 was 0.017 µM and the EC300 is > 0.471 µM.

On to `S=C1N(CCCC[C@H]2CNC(C3CCCC3)=N2)C[C@@H](c2ccccc2)N1CCC1CCCCC1` [Compound A23, (R)-3-(2-cyclohexylethyl)-1-(4-((S)-2-cyclopentyl-4,5-dihydro-1H-imidazol-4-yl)butyl)-4-phenylimidazolidine-2-thione], for which the activity at 0.015625 µg/mL was determined as 182%, the activity at 0.03125 µg/mL was 252%, the activity at 0.0625 µg/mL came out at 260% and the activity at 0.125 µg/mL amounted to 262%. For the same compound, the activity at 0.25 µg/mL stood at 232%, the activity at 0.5 µg/mL was 186%, the EC200 was 0.007 µM and the EC300 is 0.091 µM.

Regarding `CC(C)CCCN1C(=S)N(CCCC[C@H]2CNC(CCCc3ccccc3)=N2)C[C@H]1c1ccccc1` [Compound A21, (R)-3-(4-methylpentyl)-4-phenyl-1-(4-((S)-2-(3-phenylpropyl)-4,5-dihydro-1H-imidazol-4-yl)butyl)imidazolidine-2-thione], the activity at 0.015625 µg/mL worked out at 114%, the activity at 0.03125 µg/mL worked out at 170%, the activity at 0.0625 µg/mL is 172% and the activity at 0.125 µg/mL is 259%. Besides, the activity at 0.25 µg/mL is 254% and the activity at 0.5 µg/mL came to 225%.
